Legend:
Tg-TauP301L mice = test: Hippocampal PHF Tau hyperphosphorylation (AT8) in Tg-TauP301L model of tauopathy; type: in vivo, mouse; details: 12 months-old Tg-TauP301L mice treated for 6 months
Excerpt: For a genetic model of familial AD (FAD), Tg2576 mice (Taconic Biosciences, Rensselaer, N.Y., USA) were used with neuron-specific overexpression of human APPSwe, i.e the Swedish mutation of APP695 isolated from a Swedish family with FAD featuring the double mutation K670N/M671L (Hsiao et al., Science 274, 99-103 (1996)). As a genetic model of tauopathy, the Tg-TauP301L mice (Model 2508, Taconic Biosciences, Rensselaer, N.Y., USA) with neuron-specific expression of the most common FTDP-17 (frontotemporal dementia and parkinsonism linked to chromosome 17) mutation (Lewis et al., Nature Genetics 25, 402-405 (2000)) were used. To enhance neurodegeneration and neuronal loss, the CUMS (chronic unpredictable mild stress) protocol was performed with male 12 months-old Tg2576 mice for 3 months essentially as described (AbdAlla et al., J. Biol. Chem. 284, 6554-6565 (2009); AbdAlla et al., J. Biol. Chem. 284, 6566-6574 (2009)). […]
Similarly, hyperphosphorylated Tau was detected with AT8 antibody on paraffin-embedded brain sections from 12 months-old Tg-TauP301L mice (Model 2508, Taconic Biosciences, Rensselaer, N.Y., USA) without and with treatment with Compound-1 and Compound-4 for 6 months. […]

[1] = system: rats subjected to the CUMS protocol; test: Immunoblot detection of hippocampal PHF-Tau (AT8) in aged rats subjected to CUMS; type: in vivo, rat; details: 16 months-old rats, CUMS for 4 weeks, oral treatment 8 mg/kg/d
Description: As a model for reproducing major features of sporadic AD and depression, 15 months-old male rats were […] according to the CUMS protocol for 4 weeks. The following stimuli were administered each week in a random order: two periods (7 h and 17 h) of 45° cage tilt; soaked cage for 17 h; food deprivation (24 h) and water deprivation (12 h), twice a week; paired housing (17 h); overnight illumination during the dark phase, twice a week; noise (85 dB) in the room for 5 h, twice a week; flashing light (60 flashes/min) for 6 h, three times a week (AbdAlla et al., Biomed. Res. Int. 2015:917156 (2015); El-faramawy et al., Pharmacol. Biochem. Behav. 91, 339-344 (2009)). The sucrose preference test (2% sucrose in water) was done immediately after a period of food and water deprivation. […]
For immunoblot detection of PHF-Tau in the hippocampus of aged 16 month-old rats subjected to the CUMS protocol for 4 weeks, hippocampi were dissected out from isolated brains on ice, pulverized under liquid nitrogen, and proteins were extracted with guanidine-hydrochloride (6.25 M guanidine hydrochloride in 50 mM Tris, pH 8.0 supplemented with 1× protease inhibitors and 1× phosphatase inhibitors) for 30 min at 4° C. […] For quantitative analysis, quantitative immunoblot evaluation was performed. To control for equal protein loading, the total content of hippocampal Gnb was determined. […]

O=C(C1=C(O)C(c2ccccc2)N(c2ccc3c(c2)OCO3)C1=O)C1CC1 (stereo not drawn) [Compound-1, 1-(1,3-benzodioxol-5-yl)-4-(cyclopropane-carbonyl)-3-hydroxy-2-phenyl-2H-pyrrol-5-one]
hippocampal content of hyperphosphorylated PHF-Tau (quantitative, [125I]-AT8 binding) (Tg-TauP301L mice): significantly decreased hippocampal content of hyperphosphorylated PHF-Tau | PHF Tau hyperphosphorylation in hippocampal CA3 area (immunohistology) (Tg-TauP301L mice; 8 mg/kg/d in drinking water): largely absent | hippocampal PHF Tau hyperphosphorylation (immunoblot AT8) [1]: retard PHF Tau hyperphosphorylation

— patent US20210015793A1, “COMPOUNDS FOR TREATING CNS- AND NEURODEGENERATIVE DISEASES” (ETH ZURICH, priority 2018, published 2021)
